Experimental data as given in patent publication US8828401B2, “Cytotoxic peptides and antibody drug conjugates thereof” (Pfizer Inc., priority 2011, dated 2014).
Non-standard residues stand in square brackets, D forms with d. Residues, ends and D or L forms follow the SMILES beside them. *: point of attachment. Dolaproine = CO[C@@H]([C@@H]1CCCN1)[C@@H](C)C(=O)O; Dil = CC[C@H](C)[C@H](NC)[C@@H](CC(=O)O)OC; Phe(4-NH2) = Nc1ccc(C[C@H](N)C(=O)O)cc1; X9 = Cc1cc(-c2nc3cc(F)ccc3s2)ccc1N*; X1 = CN1CCC[C@]1(C)C(=O)*; NMeAib = CNC(C)(C)C(=O)O; Aib = CC(C)(N)C(=O)O; NHtBu = CC(C)(C)N*

Legend:
Assay in all cases: In vitro cell assay, MTS cell viability 96 hours after treatment
Type in all cases: cell-based
BT474 (breast cancer) = details: Homo sapiens, BT-474, BT474 cells; geometric mean; cytotoxic peptides; read-out: BT474 GMEAN IC50
Procedure: (§1) Cells were treated with 3-fold serially diluted antibody-drug conjugates or free compounds (i.e., no antibody conjugated to the drug) in duplicate at 10 concentrations. Cell viability was determined by CellTiter 96® AQueous One Solution Cell Proliferation MTS Assay (Promega, Madison Wis.) 96 hours after treatment. Relative cell viability was determined as percentage of untreated control.

[1] = tested on: MDA-MB-361-DYT2 (breast cancer); details: read-out: MDA-MB-361-DYT2 GMEAN IC50, MDA-MB-361-DYT2 cells; geometric mean; cytotoxic peptides
Procedure: as §1

N87 (gastric cancer) = details: read-out: N87 GMEAN IC50, N87 cells; geometric mean; cytotoxic peptides
Procedure: as §1

CC[C@H](C)[C@@H]([C@@H](CC(=O)N1CCC[C@H]1[C@H](OC)[C@@H](C)C(=O)N[C@@H](Cc1ccccc1)C(=O)OC)OC)N(C)C(=O)[C@@H](NC(=O)[C@]1(C)CCCCN1)C(C)C (single isomer, unassigned) [#158]
IC50 (BT474 (breast cancer)): 0.082 nM | IC50 [1]: 0.1 nM | IC50 (N87 (gastric cancer)): 0.115 nM

CC[C@H](C)[C@@H]([C@@H](CC(=O)N1CCC[C@H]1[C@H](OC)[C@@H](C)C(=S)N[C@@H](Cc1ccccc1)c1nccs1)OC)N(C)C(=O)[C@@H](NC(=O)C1(N)CCCC1)C(C)C [#30, N^2-[(1-aminocyclopentyl)carbonyl]-N-[(3R,4S,5S)-3-methoxy-1-{(2S)-2-[(1R,2R)-1-methoxy-2-methyl-3-{[(1S)-2-phenyl-1-(1,3-thiazol-2-yl)ethyl]amino}-3-thioxopropyl]pyrrolidin-1-yl}-5-methyl-1-oxoheptan-4-yl]-N-methyl-L-valinamide]
IC50 (BT474 (breast cancer)): 0.682 nM | IC50 [1]: 1.85 nM | IC50 (N87 (gastric cancer)): 6.71 nM

CC[C@H](C)[C@@H]([C@@H](CC(=O)N1CCC[C@H]1[C@H](OC)[C@@H](C)C(=S)N[C@@H](Cc1ccccc1)c1nccs1)OC)N(C)C(=O)[C@@H](NC(=O)C(C)(C)N)C(C)C [#34, 2-methylalanyl-N-[(3R,4S,5S)-3-methoxy-1-{(2S)-2-[(1R,2R)-1-methoxy-2-methyl-3-{[(1S)-2-phenyl-1-(1,3-thiazol-2-yl)ethyl]amino}-3-thioxopropyl]pyrrolidin-1-yl}-5-methyl-1-oxoheptan-4-yl]-N-methyl-L-valinamide]
IC50 (BT474 (breast cancer)): 0.211 nM | IC50 [1]: 1.12 nM | IC50 (N87 (gastric cancer)): 1.95 nM

CC[C@H](C)[C@@H]([C@@H](CC(=O)N1CCC[C@H]1[C@H](OC)[C@@H](C)C(=S)N[C@@H](Cc1ccccc1)C(=O)O)OC)N(C)C(=O)[C@@H](NC(=O)[C@@H](NC)C(C)C)C(C)C [#41, N-methyl-L-valyl-N-[(3R,4S,5S)-1-{(2S)-2-[(1R,2R)-3-{[(1S)-1-carboxy-2-phenylethyl]amino}-1-methoxy-2-methyl-3-thioxopropyl]pyrrolidin-1-yl}-3-methoxy-5-methyl-1-oxoheptan-4-yl]-N-methyl-L-valinamide]
IC50 (BT474 (breast cancer)): 29.7 nM | IC50 [1]: 51.8 nM | IC50 (N87 (gastric cancer)): 33.2 nM

CC[C@H](C)[C@@H]([C@@H](CC(=O)N1CCC[C@H]1[C@H](OC)[C@@H](C)C(=S)N[C@@H](Cc1ccccc1)C(=O)OC)OC)N(C)C(=O)[C@@H](NC(=O)[C@@H](NC)C(C)C)C(C)C [#42, N-methyl-L-valyl-N-[(3R,4S,5S)-3-methoxy-1-{(2S)-2-[(1R,2R)-1-methoxy-3-{[(2S)-1-methoxy-1-oxo-3-phenylpropan-2-yl]amino}-2-methyl-3-thioxopropyl]pyrrolidin-1-yl}-5-methyl-1-oxoheptan-4-yl]-N-methyl-L-valinamide]
IC50 (BT474 (breast cancer)): 0.125 nM | IC50 [1]: 0.195 nM | IC50 (N87 (gastric cancer)): 0.327 nM

CC[C@H](C)[C@@H]([C@@H](CC(=O)N1CCC[C@H]1[C@H](OC)[C@@H](C)C(=S)N[C@@H](Cc1ccccc1)C(=O)O)OC)N(C)C(=O)[C@@H](NC(=O)C(C)(C)N)C(C)C [#44, 2-methylalanyl-N-[(3R,4S,5S)-1-{(2S)-2-[(1R,2R)-3-{[(1S)-1-carboxy-2-phenylethyl]amino}-1-methoxy-2-methyl-3-thioxopropyl]pyrrolidin-1-yl}-3-methoxy-5-methyl-1-oxoheptan-4-yl]-N-methyl-L-valinamide]
IC50 (BT474 (breast cancer)): 7.12 nM | IC50 [1]: > 16.4 nM | IC50 (N87 (gastric cancer)): 14.6 nM

CC[C@H](C)[C@@H]([C@@H](CC(=O)N1CCC[C@H]1[C@H](OC)[C@@H](C)C(=O)N[C@@H](Cc1ccccc1)C(=O)NC(C)(C)C)OC)N(C)C(=O)[C@@H](NC(=O)C(C)(C)NC)C(C)C [#144, N,2-dimethylalanyl-N-{(1S,2R)-4-{(2S)-2-[(1R,2R)-3-{[(1S)-1-benzyl-2-(tert-butylamino)-2-oxoethyl]amino}-1-methoxy-2-methyl-3-oxopropyl]pyrrolidin-1-yl}-2-methoxy-1-[(1S)-1-methylpropyl]-4-oxobutyl}-N-methyl-L-valinamide] (H-[NMeAib]V[Dil][Dolaproine]F-NHtBu)
IC50 (BT474 (breast cancer)): 0.172 nM | IC50 [1]: 0.174 nM

CC[C@H](C)[C@@H]([C@@H](CC(=O)N1CCC[C@H]1[C@H](OC)[C@@H](C)C(=O)NCCC1C=CC=CC=C1)OC)N(C)C(=O)[C@@H](NC(=O)[C@@]1(C)CCCCN1)C(C)C [#180, (2R)—N-[(2S)-1-{[(3R,4S,5S)-1-{(2S)-2-[(1R,2R)-3-{[2-(cyclohepta-2,4,6-trien-1-yl)ethyl]amino}-1-methoxy-2-methyl-3-oxopropyl]pyrrolidin-1-yl}-3-methoxy-5-methyl-1-oxoheptan-4-yl](methyl)amino}-3-methyl-1-oxobutan-2-yl]-2-methylpiperidine-2-carboxamide]
IC50 (BT474 (breast cancer)): 0.159 nM | IC50 [1]: 0.113 nM

CC[C@H](C)[C@@H]([C@@H](CC(=O)N1CCC[C@H]1[C@H](OC)[C@@H](C)C(=O)N[C@@H](Cc1ccccc1)c1nccs1)OC)N(C)C(=O)[C@@H](NC(=O)[C@@]1(F)CCNC1)C(C)C [#192, N˜2˜-{[(3R)-3-fluoropyrrolidin-3-yl]carbonyl}-N-[(3R,4S,5S)-3-methoxy-1-{(2S)-2-[(1R,2R)-1-methoxy-2-methyl-3-oxo-3-{[(1S)-2-phenyl-1-(1,3-thiazol-2-yl)ethyl]amino}propyl]pyrrolidin-1-yl}-5-methyl-1-oxoheptan-4-yl]-N-methyl-L-valinamide]
IC50 (BT474 (breast cancer)): 0.262 nM | IC50 [1]: 0.408 nM

CC[C@H](C)[C@@H]([C@@H](CC(=O)N1CCC[C@H]1[C@H](OC)[C@@H](C)C(=O)N[C@@H](Cc1ccccc1)c1nccs1)OC)N(C)C(=O)[C@@H](NC(=O)[C@]1(F)CCNC1)C(C)C [#194, N˜2˜-{[(3S)-3-fluoropyrrolidin-3-yl]carbonyl}-N-[(3R,4S,5S)-3-methoxy-1-{(2S)-2-[(1R,2R)-1-methoxy-2-methyl-3-oxo-3-{[(1S)-2-phenyl-1-(1,3-thiazol-2-yl)ethyl]amino}propyl]pyrrolidin-1-yl}-5-methyl-1-oxoheptan-4-yl]-N-methyl-L-valinamide]
IC50 (BT474 (breast cancer)): 0.134 nM | IC50 [1]: 0.198 nM

CC[C@H](C)[C@@H]([C@@H](CC(=O)N1CCC[C@H]1[C@H](OC)[C@@H](C)C(=O)N[C@@H](Cc1ccc(N)cc1)C(=O)OC)OC)N(C)C(=O)[C@@H](NC(=O)[C@@]1(C)CCCN1C)C(C)C [#201, 1,2-dimethyl-D-prolyl-N-[(3R,4S,5S)-1-{(2S)-2-[(1R,2R)-3-{[(2S)-3-(4-aminophenyl)-1-methoxy-1-oxopropan-2-yl]amino}-1-methoxy-2-methyl-3-oxopropyl]pyrrolidin-1-yl}-3-methoxy-5-methyl-1-oxoheptan-4-yl]-N-methyl-L-valinamide] (X1-V[Dil][Dolaproine][Phe(4-NH2)]-OMe)
IC50 (BT474 (breast cancer)): 0.144 nM | IC50 [1]: 0.121 nM

CC[C@H](C)[C@@H]([C@@H](CC(=O)N1CCC[C@H]1[C@H](OC)[C@@H](C)C(=O)N[C@@H](Cc1ccccc1)C(=O)Nc1ccc(-c2nc3cc(F)ccc3s2)cc1C)OC)N(C)C(=O)[C@@H](NC(=O)C(C)(C)N)C(C)C [#235] (H-[Aib]V[Dil][Dolaproine]F-X9)
IC50 (BT474 (breast cancer)): 0.852 nM | IC50 [1]: 1.28 nM
